According to the NIST ThermoML archive (doi:10.1021/je8001305):

Experiment: xn = mol fraction of the nth substance listed
Settings: Liquid, Vibrating tube method

CC(C)O [propan-2-ol] + O
Settings | mass density [kg/m3]
300.08 K, 7 kPa, x1 = 0.2483 | 895.51
300.08 K, 7.3 kPa, x1 = 0.7258 | 805.5
300.08 K, 88.2 kPa, x1 = 0.7258 | 805.57
300.08 K, 146.2 kPa, x1 = 0.2483 | 895.5
300.08 K, 303 kPa, x1 = 0.7258 | 805.78
300.08 K, 381.3 kPa, x1 = 0.2483 | 895.67
300.08 K, 565.1 kPa, x1 = 0.7258 | 806
300.08 K, 764.9 kPa, x1 = 0.2483 | 895.89
300.08 K, 1101.1 kPa, x1 = 0.2483 | 896.11
300.08 K, 1126.2 kPa, x1 = 0.7258 | 806.42
300.08 K, 1556.8 kPa, x1 = 0.2483 | 896.32
300.08 K, 1702.5 kPa, x1 = 0.7258 | 806.92
300.08 K, 1921.9 kPa, x1 = 0.2483 | 896.56
300.08 K, 2181.5 kPa, x1 = 0.2483 | 896.86
300.08 K, 2239.8 kPa, x1 = 0.7258 | 807.33
300.08 K, 2610.1 kPa, x1 = 0.2483 | 897.09
300.08 K, 2722.7 kPa, x1 = 0.7258 | 807.73
300.08 K, 3080.5 kPa, x1 = 0.2483 | 897.32
300.08 K, 3196 kPa, x1 = 0.7258 | 808.11
300.08 K, 3522.3 kPa, x1 = 0.2483 | 897.58
300.08 K, 3715.6 kPa, x1 = 0.7258 | 808.53
300.08 K, 4082.6 kPa, x1 = 0.2483 | 897.87
300.08 K, 4231.5 kPa, x1 = 0.7258 | 808.93
300.08 K, 4587.1 kPa, x1 = 0.7258 | 809.31
300.08 K, 4663.3 kPa, x1 = 0.2483 | 898.17
300.08 K, 5151.3 kPa, x1 = 0.2483 | 898.42
300.08 K, 5314.6 kPa, x1 = 0.7258 | 809.85
300.08 K, 5562.5 kPa, x1 = 0.2483 | 898.65
300.08 K, 5793.2 kPa, x1 = 0.7258 | 810.24
300.08 K, 5980.5 kPa, x1 = 0.2483 | 898.85
300.08 K, 6301.2 kPa, x1 = 0.7258 | 810.63
300.08 K, 6414.3 kPa, x1 = 0.2483 | 899.11
300.08 K, 6754.8 kPa, x1 = 0.2483 | 899.33
300.08 K, 6783.9 kPa, x1 = 0.7258 | 811.02
300.08 K, 7246.8 kPa, x1 = 0.2483 | 899.56
300.08 K, 7297.6 kPa, x1 = 0.7258 | 811.43
300.08 K, 7636.7 kPa, x1 = 0.2483 | 899.78
300.08 K, 7804.4 kPa, x1 = 0.7258 | 811.81
300.08 K, 8131.6 kPa, x1 = 0.2483 | 900.04
300.08 K, 8342.2 kPa, x1 = 0.7258 | 812.23
300.08 K, 8662.8 kPa, x1 = 0.2483 | 900.28
300.08 K, 8818 kPa, x1 = 0.7258 | 812.6
300.08 K, 9087.3 kPa, x1 = 0.2483 | 900.54
300.08 K, 9330.1 kPa, x1 = 0.7258 | 813
300.08 K, 9562.3 kPa, x1 = 0.2483 | 900.79
300.08 K, 9918.9 kPa, x1 = 0.7258 | 813.45
300.1 K, 7.2 kPa, x1 = 0.4939 | 837.98
300.1 K, 233.4 kPa, x1 = 0.4939 | 838.18
300.1 K, 503 kPa, x1 = 0.4939 | 838.33
300.1 K, 946.6 kPa, x1 = 0.4939 | 838.71
300.1 K, 1545.3 kPa, x1 = 0.4939 | 839.06
300.1 K, 1902.2 kPa, x1 = 0.4939 | 839.36
300.1 K, 2303.5 kPa, x1 = 0.4939 | 839.65
300.1 K, 2724.6 kPa, x1 = 0.4939 | 839.96
300.1 K, 3136.5 kPa, x1 = 0.4939 | 840.26
300.1 K, 3567.9 kPa, x1 = 0.4939 | 840.56
300.1 K, 3995.8 kPa, x1 = 0.4939 | 840.87
300.1 K, 4436.2 kPa, x1 = 0.4939 | 841.18
300.1 K, 4835.5 kPa, x1 = 0.4939 | 841.48
300.1 K, 5262 kPa, x1 = 0.4939 | 841.77
300.1 K, 5699.8 kPa, x1 = 0.4939 | 842.07
300.1 K, 6161 kPa, x1 = 0.4939 | 842.39
300.1 K, 6588.4 kPa, x1 = 0.4939 | 842.68
300.1 K, 7053 kPa, x1 = 0.4939 | 843
300.1 K, 7437.9 kPa, x1 = 0.4939 | 843.28
300.1 K, 7862 kPa, x1 = 0.4939 | 843.57
300.1 K, 8248.5 kPa, x1 = 0.4939 | 843.86
300.1 K, 8704.4 kPa, x1 = 0.4939 | 844.15
300.1 K, 9260.6 kPa, x1 = 0.4939 | 844.49
300.1 K, 9966.4 kPa, x1 = 0.4939 | 845.04
325.09 K, 28.6 kPa, x1 = 0.4939 | 814.94
325.09 K, 65.4 kPa, x1 = 0.4939 | 814.96
325.09 K, 303 kPa, x1 = 0.4939 | 815.2
325.09 K, 645.3 kPa, x1 = 0.4939 | 815.47
325.09 K, 1004.8 kPa, x1 = 0.4939 | 815.8
325.09 K, 1391.9 kPa, x1 = 0.4939 | 816.13
325.09 K, 1788.1 kPa, x1 = 0.4939 | 816.48
325.09 K, 2242 kPa, x1 = 0.4939 | 816.83
325.09 K, 2881.1 kPa, x1 = 0.4939 | 817.33
325.09 K, 3904.6 kPa, x1 = 0.4939 | 818.19
325.09 K, 4242.1 kPa, x1 = 0.4939 | 818.51
325.09 K, 4784.4 kPa, x1 = 0.4939 | 818.94
325.09 K, 5116.8 kPa, x1 = 0.4939 | 819.26
325.09 K, 5507.3 kPa, x1 = 0.4939 | 819.61
325.09 K, 5912.2 kPa, x1 = 0.4939 | 819.93
325.09 K, 6322.1 kPa, x1 = 0.4939 | 820.28
325.09 K, 6773 kPa, x1 = 0.4939 | 820.6
325.09 K, 7214.5 kPa, x1 = 0.4939 | 820.97
325.09 K, 7613.3 kPa, x1 = 0.4939 | 821.31
325.09 K, 8080.5 kPa, x1 = 0.4939 | 821.7
325.09 K, 8603.1 kPa, x1 = 0.4939 | 822.11
325.09 K, 9197.3 kPa, x1 = 0.4939 | 822.51
325.09 K, 9561.4 kPa, x1 = 0.4939 | 822.86
325.1 K, 27.3 kPa, x1 = 0.2483 | 874.07
325.1 K, 72.6 kPa, x1 = 0.2483 | 874.13
325.1 K, 410.3 kPa, x1 = 0.2483 | 874.37
325.1 K, 962.1 kPa, x1 = 0.2483 | 874.71
325.1 K, 1343 kPa, x1 = 0.2483 | 875.01
325.1 K, 1859.5 kPa, x1 = 0.2483 | 875.37
325.1 K, 2332.6 kPa, x1 = 0.2483 | 875.6
325.1 K, 2826.4 kPa, x1 = 0.2483 | 875.91
325.1 K, 3319.4 kPa, x1 = 0.2483 | 876.24
325.1 K, 3776.3 kPa, x1 = 0.2483 | 876.52
325.1 K, 4236.7 kPa, x1 = 0.2483 | 876.83
